Measured values as given in ChEMBL document CHEMBL1926533, “Synthesis and biological evaluation of cyclopentane-linked alkyl phosphocholines as potential anticancer agents that act by inhibiting Akt phosphorylation” (Eur J Med Chem, 2012).
Blank lines part the entries; values can stand above or below the compound they belong to.

Tests used:
A549 [1] = assay: Inhibition of Akt phosphorylation in insulin-stimulated human A549 cells at 10 uM treated 2 hrs before insulin stimulation measured after 30 mins by ELISA; type: cell-based
[2] = Inhibition of Akt phosphorylation in insulin-stimulated human A549 cells treated 2 hrs before insulin stimulation measured after 30 mins by ELISA; type: cell-based
A549 [3] = assay: Cytotoxicity against human A549 cells after 24 hrs by FACS analysis; type: functional, cell-based; conditions: A549, 24 h
MCF7 = assay: Cytotoxicity against human MCF7 cells after 24 hrs by FACS analysis; type: functional, cell-based; conditions: MCF7, 24 h
[4] = Cytotoxicity against human KATO III cells after 24 hrs by FACS analysis; type: functional, cell-based, KATO III cell
A549 [5] = assay: Ratio of erufosine IC50 to compound IC50 for inhibition of Akt phosphorylation in insulin-stimulated human A549 cells; type: cell-based
A549 [6] = assay: Ratio of miltefosine IC50 to compound IC50 for inhibition of Akt phosphorylation in insulin-stimulated human A549 cells; type: cell-based
A549 [7] = assay: Ratio of perifosine IC50 to compound IC50 for inhibition of Akt phosphorylation in insulin-stimulated human A549 cells; type: cell-based

IC50 [2]: 10 µM
Compound: CCCCCCCCCCCCCCCCCCCCCCOC[C@@H]1CCC[C@H]1OP(=O)([O-])OCC[N+](C)(C)C (racemic)
inhibition (A549 [1]): 58.2%
IC50 (A549 [3]): 16 µM
IC50 (MCF7): 16.3 µM
IC50 [4]: 11.9 µM

Compound: CCCCCCCCCCCCO[C@H]1CCC[C@H]1COP(=O)([O-])OCC[N+](C)(C)C (racemic)
inhibition (A549 [1]): 30.4%
IC50 (A549 [3]): 26.3 µM
IC50 (MCF7): 24.2 µM
IC50 [4]: 7.4 µM

IC50 [2]: 6.5 µM
Compound: CCCCCCCCCCCCCCCCCCCCCCO[C@@H]1CCC[C@H]1COP(=O)([O-])OCC[N+](C)(C)C (racemic)
inhibition (A549 [1]): 68%
IC50 (A549 [3]): 11.1 µM
IC50 (MCF7): 19.5 µM
IC50 [4]: 17.6 µM

IC50 [2]: 3.6 µM
Compound: CCCCCCCCCCCCCCCCCCCCOC[C@@H]1CCC[C@H]1OP(=O)([O-])OCC[N+](C)(C)C (racemic)
inhibition (A549 [1]): 74.4%
IC50 (A549 [3]): 6.4 µM
IC50 (MCF7): 10.8 µM
IC50 [4]: 8.7 µM
Ratio IC50 (A549 [5]): 3
Ratio IC50 (A549 [6]): 3
Ratio IC50 (A549 [7]): 2

Compound: CCCCCCCCCCCCCCCCCCCCCCO[C@H]1CCC[C@H]1COP(=O)([O-])OCC[N+](C)(C)C (racemic)
inhibition (A549 [1]): 36.2%
IC50 (A549 [3]): 23.3 µM
IC50 (MCF7): 12.8 µM
IC50 [4]: 8.6 µM

IC50 [2]: 5.3 µM
Compound: CCCCCCCCCCCCCCCCCCOP(=O)([O-])OC1CC[N+](C)(C)CC1 [PERIFOSINE]
inhibition (A549 [1]): 68%
IC50 (A549 [3]): 7 µM
IC50 (MCF7): 13.3 µM
IC50 [4]: 12.8 µM

IC50 [2]: 9.1 µM
Compound: CCCCCCCCCCCCCCCCCCCCO[C@@H]1CCC[C@H]1COP(=O)([O-])OCC[N+](C)(C)C (racemic)
inhibition (A549 [1]): 58.9%
IC50 (A549 [3]): 9.8 µM
IC50 (MCF7): 15.6 µM
IC50 [4]: 7.7 µM

Compound: CCCCCCCCCCCCO[C@@H]1CCC[C@H]1COP(=O)([O-])OCC[N+](C)(C)C (racemic)
inhibition (A549 [1]): 31.7%
IC50 (MCF7): 14.7 µM
IC50 [4]: 10.4 µM

IC50 [2]: 6.6 µM
Compound: CCCCCCCCCCCCCOC[C@@H]1CCC[C@H]1OP(=O)([O-])OCC[N+](C)(C)C (racemic)
inhibition (A549 [1]): 65.4%
IC50 (A549 [3]): 6.1 µM
IC50 (MCF7): 7.7 µM
IC50 [4]: 10.2 µM

Compound: CCCCCCCCCCCCCO[C@@H]1CCC[C@H]1COP(=O)([O-])OCC[N+](C)(C)C (racemic)
inhibition (A549 [1]): 40.8%
IC50 (A549 [3]): 9.4 µM
IC50 (MCF7): 17.8 µM
IC50 [4]: 10.1 µM

Compound: CCCCCCCCCCCCCCCCCCO[C@H]1CCC[C@H]1COP(=O)([O-])OCC[N+](C)(C)C (racemic)
inhibition (A549 [1]): 35.2%
IC50 (A549 [3]): 17.8 µM
IC50 (MCF7): 13.2 µM
IC50 [4]: 9.2 µM

Compound: CCCCCCCCCCCCCCCCCCO[C@@H]1CCC[C@H]1COP(=O)([O-])OCC[N+](C)(C)C (racemic)
inhibition (A549 [1]): 32.4%
IC50 (A549 [3]): 19.3 µM
IC50 (MCF7): 15.7 µM
IC50 [4]: 8.2 µM

Compound: CCCCCCCCCCCCOC[C@@H]1CCC[C@H]1OP(=O)([O-])OCC[N+](C)(C)C (racemic)
inhibition (A549 [1]): 36.2%
IC50 (A549 [3]): 11 µM
IC50 (MCF7): 11.8 µM
IC50 [4]: 10.6 µM

IC50 [2]: 9.6 µM
Compound: CCCCCCCCCCCCCCCCOP(=O)([O-])OCC[N+](C)(C)C [MILTEFOSINE]
inhibition (A549 [1]): 56.3%
IC50 (A549 [3]): 9.7 µM
IC50 (MCF7): 11.4 µM
IC50 [4]: 12.1 µM

IC50 [2]: 10.3 µM
Compound: CCCCCCCCCCCCCCCCCCOC[C@@H]1CCC[C@H]1OP(=O)([O-])OCC[N+](C)(C)C (racemic)
inhibition (A549 [1]): 63.4%
IC50 (A549 [3]): 10.8 µM
IC50 (MCF7): 13.8 µM
IC50 [4]: 10.4 µM

Compound: CCCCCCCCCCCCCO[C@H]1CCC[C@H]1COP(=O)([O-])OCC[N+](C)(C)C (racemic)
inhibition (A549 [1]): 44.7%
IC50 (A549 [3]): 10.2 µM
IC50 (MCF7): 10.7 µM
IC50 [4]: 12.1 µM

IC50 [2]: 16.3 µM
Compound: CCCCCCCCCCCCCCCCCCCCO[C@H]1CCC[C@H]1COP(=O)([O-])OCC[N+](C)(C)C (racemic)
inhibition (A549 [1]): 54.4%
IC50 (A549 [3]): 9.7 µM
IC50 (MCF7): 16.3 µM
IC50 [4]: 8.8 µM
